For 79 molecules, LC retention time results are on record in the RepoRT retention time repository.

The data set can be described thus: RP, Waters CORTECS UPLC C18, 100 × 2.1 mm, 1.6 µm, 40 °C, 0.4 mL/min, estimated dead time 0.55 min; A: water + 0.1% formic acid, pH 3; B: acetonitrile + 0.1% formic acid, pH 3; gradient (min/%B) 0/5 1.12/5 6.41/99.5 10.01/99.5. The conditions noted are these: stereoisomer not certain.

Regarding `CNC(=O)N(C)c1nnc(C(C)(C)C)s1` [Tebuthiuron], the LC retention time was 3.68 min.

On to `Cc1cccc(C)c1N(Cn1cccn1)C(=O)CCl` [Metazachlor], for which the LC retention time was 4.52 min.

As for `CC1=C(C(=O)Nc2ccccc2)SCCO1` [Carboxin], the LC retention time is 4.3 min.

For the molecule `Nc1nc2nc[nH]c2c(=O)[nH]1` [GUANINE], the LC retention time is 0.76 min.

Turning to `O=C(O)c1ccnc2ccccc12` [4-QUINOLINECARBOXYLATE], the LC retention time is 0.782 min.

As for `CC(CCC(=O)NCCS(=O)(=O)O)C1CCC2C3CCC4CC(O)CCC4(C)C3CC(O)C12C` (centres undefined) [Taurodeoxycholic acid], the LC retention time is 4.16 min.

Regarding `CCCCCCCCCCCCC[n+]1cccc(S(=O)(=O)[O-])c1` [C13-APS], the LC retention time was 5.19 min.

In the case of `Cn1c(=O)c2c(ncn2C)n(C)c1=O` [CAFFEINE], the LC retention time was 2.52 min.

Take `C[C@H](CCC(=O)O)[C@H]1CC[C@H]2[C@@H]3CC[C@@H]4CC(=O)CC[C@]4(C)[C@H]3CC[C@]12C` [3-Oxo-5β-cholanoic Acid]: the LC retention time was 6.05 min.

With `CCCCc1c(C)nc(NCC)nc1OS(=O)(=O)N(C)C` [Bupirimate], the LC retention time is 3.29 min.

As to `COC(=O)C(C)N(C(=O)Cc1ccccc1)c1c(C)cccc1C` (centres undefined) [Benalaxyl], the LC retention time is 5.46 min.

Regarding `NCC(O)c1ccccc1` (centres undefined) [PHENYLETHANOLAMINE], the LC retention time was 0.755 min.

Consider `C#CCOc1ccc(CCNC(=O)C(OCC#C)c2ccc(Cl)cc2)cc1OC` (centres undefined) [Mandipropamid], for which the LC retention time is 4.95 min.

On to `CN(C)C(=O)Nc1ccc(Oc2ccc(Cl)cc2)cc1` [Chloroxuron], for which the LC retention time was 4.84 min.

Take `CC(C)CCC[C@@H](C)[C@H]1CC[C@H]2[C@@H]3[C@H](O)CC4=CC(=O)CC[C@]4(C)[C@H]3CC[C@]12C` [7α-Hydroxy-4-cholesten-3-one]: the LC retention time was 7.4 min.

On to `CN(C)C(=O)NC1CCCCCCC1` [Cycluron], for which the LC retention time was 4.22 min.

For `C[Si](Cn1cncn1)(c1ccc(F)cc1)c1ccc(F)cc1` [Flusilazole], the LC retention time is 5.06 min.

On to `O=C(O)c1cc(O)c(O)c(O)c1` [Gallic acid], for which the LC retention time was 0.886 min.

On to `O=Cc1cccc(O)c1` [3-HYDROXYBENZALDEHYDE], for which the LC retention time is 2.13 min.

`CCOC(=O)Cc1c[nH]c2ccccc12` [ETHYL 3-INDOLEACETATE]: the LC retention time was 4.49 min.

For `CC(=NC#N)N(C)Cc1ccc(Cl)nc1` [Acetamiprid], the LC retention time is 3.33 min.

With `COP(=O)(OC)OC=C(Cl)Cl` [Dichlorvos], the LC retention time is 3.89 min.

Take `Cc1c[nH]c(=O)[nH]c1=O` [THYMINE]: the LC retention time is 0.792 min.

Turning to `CCCSP(=O)(OCC)SCCC` [Ethoprop], the LC retention time was 5.02 min.

As for `CC(=O)NCCc1c[nH]c2ccc(O)cc12` [N-ACETYLSEROTONIN], the LC retention time is 2.55 min.

As to `CC(CCC(=O)O)C1CCC2C3C(=O)CC4CC(O)CCC4(C)C3CCC12C` (centres undefined) [Nutriacholic Acid], the LC retention time is 4.8 min.

On to `CC(Cc1ccc(C(C)(C)C)cc1)CN1CCCCC1` (centres undefined) [Fenpropidine], for which the LC retention time was 4.27 min.

On to `CNC(=O)C(C)SCCSP(=O)(OC)OC` (centres undefined) [Vamidothion], for which the LC retention time is 3.02 min.

In the case of `CCN(CC)C(=O)C(Cl)=C(C)OP(=O)(OC)OC` (mixture of isomers) [Phospamidon (Mix of isomers)], the LC retention time is 3.69 min.

Take `CNC(=O)Oc1cc(C)c(N(C)C)c(C)c1` [Mexacarbate]: the LC retention time was 2.61 min.

In the case of `CCCCCCCCC=CCCCCCCCC(=O)OC(CC(=O)[O-])C[N+](C)(C)C` [Oleoyl-L-carnitine], the LC retention time is 5.63 min.

Turning to `CCOC(=O)C(SP(=S)(OC)OC)c1ccccc1` (centres undefined) [Phenthoate], the LC retention time is 5.54 min.

As for `CC(CCC(=O)O)C(=O)O` (centres undefined) [2-METHYLGLUTARATE], the LC retention time is 2.47 min.

Turning to `Cc1cc(C)c(C2=C(OC(=O)CC(C)(C)C)C3(CCCC3)OC2=O)c(C)c1` [Spiromesifen], the LC retention time is 6.47 min.

Consider `O=C(NCc1ncc(C(F)(F)F)cc1Cl)c1c(Cl)cccc1Cl` [Fluopicolide], for which the LC retention time was 5.06 min.

Regarding `CCCCC(C#N)(Cn1cncn1)c1ccc(Cl)cc1` (centres undefined) [Myclobutanil], the LC retention time is 4.93 min.

In the case of `CC(CCC(=O)O)C1CCC2C3C(=O)CC4CC(=O)CCC4(C)C3CC(=O)C12C` (centres undefined) [Dehydrocholic acid], the LC retention time was 4.13 min.

As to `Nc1nc2c(ncn2C2CC(O)C(CO)O2)c(=O)[nH]1` (centres undefined) [DEOXYGUANOSINE], the LC retention time was 0.751 min.

Turning to `CC12CCC(=O)C=C1CCC1C2C(=O)CC2(C)C1CCC2(O)C(=O)CO` (centres undefined) [CORTISONE], the LC retention time is 3.69 min.

As for `Cc1cc(C)nc(Nc2ccccc2)n1` [Pyrimethanil], the LC retention time was 4.13 min.

For the molecule `CNC(=O)C(=NOC)c1ccccc1COc1cc(C)ccc1C` [Dimoxystrobin], the LC retention time was 5.25 min.

As to `CC(C)(C)N(NC(=O)c1ccc(Cl)cc1)C(=O)c1ccccc1` [Halofenozide], the LC retention time is 4.84 min.

On to `O=CC(O)C(O)C(O)CO` (centres undefined) [ARABINOSE], for which the LC retention time was 0.798 min.

In the case of `O=C(O)Cc1c[nH]c2ccc(O)cc12` [5-HYDROXYINDOLEACETATE], the LC retention time is 2.47 min.

On to `CC(C)C(=O)OC(CC(=O)[O-])C[N+](C)(C)C` [Isobutyryl-L-carnitine], for which the LC retention time is 1.79 min.

As to `N[C@@H](Cc1cc(I)c(O)c(I)c1)C(=O)O` [3,5-DIIODO-L-TYROSINE], the LC retention time is 2.69 min.

For the molecule `CSc1nnc(C(C)(C)C)c(=O)n1N` [Metribuzin], the LC retention time was 3.98 min.

For `CCOC1Oc2ccc(OS(C)(=O)=O)cc2C1(C)C` (centres undefined) [Ethofumesate], the LC retention time is 5.04 min.

With `COc1ccc(-c2ccccc2)cc1NNC(=O)OC(C)C` [Bifenazate], the LC retention time is 5.09 min.

On to `CC(CCC(=O)O)C1CCC2C3C(O)CC4CC(O)CCC4(C)C3CCC12C` (centres undefined) [Chenodeoxycholic acid], for which the LC retention time was 5.12 min.

Regarding `C=CCOC(Cn1ccnc1)c1ccc(Cl)cc1Cl` (centres undefined) [Imazalil], the LC retention time is 3.88 min.

Regarding `CC(CCC(=O)O)C1CCC2C3CC(O)C4CC(O)CCC4(C)C3CCC12C` (centres undefined) [Hyodeoxycholic acid], the LC retention time is 4.58 min.

With `CCCCN(CCCC)SN(C)C(=O)Oc1cccc2c1OC(C)(C)C2` [Carbosulfan], the LC retention time was 6.87 min.

As for `CC(C)CCCC(C)C1CCC2C3C(=O)C=C4CC(O)CCC4(C)C3CCC12C` (stereo not drawn) [5-Cholesten-3β-ol-7-one], the LC retention time is 7.56 min.

As to `COC(=O)N(OC)c1ccccc1COc1ccn(-c2ccc(Cl)cc2)n1` [Pyraclostrobin], the LC retention time was 5.6 min.

For `CCCCCCCCCCCC=CC(=O)OC(CC(=O)[O-])C[N+](C)(C)C` [trans-2-Tetradecenoyl-L-carnitine], the LC retention time is 4.96 min.

In the case of `CCOC(=O)C(Cl)Cc1cc(-n2nc(C)n(C(F)F)c2=O)c(F)cc1Cl` (centres undefined) [Carfentrazone-ethyl], the LC retention time is 5.39 min.

As to `O=C(Nc1ccccc1)N(Cc1ccc(Cl)cc1)C1CCCC1` [Pencycuron], the LC retention time is 5.69 min.

As for `CC(COc1ccc(Oc2ccccc2)cc1)Oc1ccccn1` (centres undefined) [Pyripoxyfen], the LC retention time was 6.07 min.

In the case of `CC1=C(C(=O)Nc2ccccc2)CCCO1` [Pyracarbolid], the LC retention time is 4.15 min.

As for `CCCCCCCCSC(=O)Oc1cc(Cl)nnc1-c1ccccc1` [Pyridat], the LC retention time was 6.78 min.

Consider `COC(=O)C(C)N(C(=O)c1ccco1)c1c(C)cccc1C` (centres undefined) [Furalaxyl], for which the LC retention time is 4.79 min.

For the molecule `Nc1cc(C(=O)O)ccc1O` [3-AMINO-4-HYDROXYBENZOATE], the LC retention time is 0.722 min.

For the molecule `CC(CCC(=O)O)C1CCC2C3C(O)CC4CC(O)CCC4(C)C3CC(O)C12C` (centres undefined) [Ursocholic acid (7-epicholic acid)], the LC retention time is 4.34 min.

Turning to `O=C(O)CNC(=O)C=Cc1ccccc1` [N-(CINNAMOYL)GLYCINE], the LC retention time was 3.26 min.

As for `CCCCCC=CCC=CCCCCCCCC(=O)OC(CC(=O)[O-])C[N+](C)(C)C` [cis,cis-9,12-Octadecadienoyl-L-carnitine], the LC retention time is 5.38 min.

For `COCCCNc1nc(NC(C)C)nc(SC)n1` [Methoprotryne], the LC retention time is 3.87 min.

For the molecule `CCOP(=S)(OCC)Oc1cc(C)nc(C(C)C)n1` [Diazinon], the LC retention time is 5.73 min.

For `CC(C)(C)C(O)C(=Cc1ccc(Cl)cc1Cl)n1cncn1` (centres undefined) [Diniconazole], the LC retention time was 5.27 min.

For `Fc1ccc(C2(Cn3cncn3)OC2c2ccccc2Cl)cc1` (centres undefined) [Epoxiconazol], the LC retention time was 4.94 min.

In the case of `CCOP(=S)(OCC)Oc1ccc2c(C)c(Cl)c(=O)oc2c1` [Coumaphos], the LC retention time is 5.6 min.

On to `CNC(=N[N+](=O)[O-])NCC1CCOC1` (centres undefined) [Dinotefuran], for which the LC retention time is 2.2 min.

For `Cc1cc(C2CC2)nc(Nc2ccccc2)n1` [Cyprodinil], the LC retention time is 4.68 min.

For `CCOP(=S)(OCC)Oc1nc(Cl)c(Cl)cc1Cl` [Dursban], the LC retention time was 6.17 min.

On to `COC(=O)Nc1cccc(OC(=O)Nc2cccc(C)c2)c1` [Phenmediphan], for which the LC retention time was 4.71 min.

On to `NCCc1c[nH]c2ccccc12` [TRYPTAMINE], for which the LC retention time was 2.43 min.

With `C[N+](C)(C)CC(CC(=O)[O-])OC(=O)CCCCC(=O)[O-].[H+]` [Adipoyl-L-carnitine], the LC retention time is 1.3 min.

As to `CCCCCCCCCCC[n+]1cccc(S(=O)(=O)[O-])c1` [C11-APS], the LC retention time is 4.59 min.

Take `COc1nc(C)nc(NC(=O)NS(=O)(=O)c2ccccc2Cl)n1` [Chlorsulfurson]: the LC retention time is 4.12 min.
